From publication PMC7596085, “The pathogenic S688Y mutation in the ligand-binding domain of the GluN1 subunit regulates the properties of NMDA receptors” (Scientific Reports, 2020)
Where two headings read alike, the source gives them in different places.

What was measured:
[1] = target: T1, hippocampal neurons expressing YFP-hGluN1-1a (Rattus norvegicus, UniProt P35439, I267L/M415L/N159S/R212K); experiment: NMDA-induced excitotoxicity, hippocampal neurons expressing YFP-hGluN1-1a; format: cell-based; conditions: 1 h treatment, measured 23 h later
T1 construct: expressed in transfected cells; host or cells: primary rat hippocampal neurons (E18 Wistar), lentiviral infection with shRNA knock-down of endogenous GluN1
Experimental: (§1) Excitotoxicity was measured 23 h after treatment by staining cells with the nuclear marker Hoechst 33,342 and then performing complex image analysis (Fig. 6a,b; see "Methods").
(§2) Excitotoxicity was induced as described previously. In brief, the cultured neurons were incubated overnight in 10% MEM (Thermo Fisher Scientific) and 90% salt-glucose (SG) medium containing 114 mM NaCl, 0.219% NaHCO3, 5.292 mM KCl, 1 mM MgCl2, 2 mM CaCl2, 10 mM HEPES, 30 mM glucose, […], and 0.1% phenol red. The following day, the media was replaced with 100% SG and the indicated concentrations of agonists/co-agonists were added to the neurons. […] Nuclear area was measured using ImageJ software (v. 1.52p), and custom-made macro scripts were used to automatically measure only the nuclei of infected cells (identified by YFP expression). […] The ratio of the number of cells in each group was then used to estimate the effects of mixing the two distributions and is expressed as the ratio of pyknotic and non-pyknotic cells. The percentage of pyknotic cells in each condition was then calculated as the number of cells classified as pyknotic divided by the total number of cells in that condition.

[2] = tested on: hippocampal neurons expressing YFP-hGluN1-1a-S688Y; experiment: NMDA-induced excitotoxicity, hippocampal neurons expressing YFP-hGluN1-1a-S688Y; format: cell-based, rat; conditions: 1 h treatment, measured 23 h later
Experimental: as §1, §2

GluN1 S688A mutation = conditions: S688A mutation vs wild type; cited from earlier work
hGluN1-4a-S688Y/hGluN3A = hGluN1-4a-S688Y/hGluN3A vs hGluN1-4a/hGluN3A, peak response
[3] = tested on: hippocampal neurons expressing YFP-hGluN1-1a; conditions: steady-state concentration-response, in the presence of 1 mM NMDA
[4] = tested on: hippocampal neurons expressing YFP-hGluN1-1a-S688Y; conditions: steady-state concentration-response, in the presence of 1 mM NMDA
[5] = tested on: hippocampal neurons expressing YFP-hGluN1-1a
[6] = tested on: hippocampal neurons expressing YFP-hGluN1-1a-S688Y; conditions: 10 µM glycine together with 100 µM NMDA
[7] = 10 µM co-agonist in the presence of 100 µM NMDA

Q: Which “neuronal cell death (% of d.n., pyknotic nuclei)” value ([1]; 10 µM co-agonist alone) does the source give for `N[C@H](CO)C(=O)O` [D-serine] here?
A: only a small degree of cell death

Q: What about the “neuronal cell death / excitotoxicity (% of d.n., pyknotic nuclei)” value [1, 7] of the same compound?
A: ~100%

Q: What about the “neuronal cell death (% of d.n., pyknotic nuclei)” value ([2]; 10 µM co-agonist alone) of the same compound?
A: only a small degree of cell death

Q: And the “neuronal cell death / excitotoxicity (% of d.n., pyknotic nuclei)” value [2, 7]?
A: significantly reduced cell death

Q: What does the source list for `NCC(=O)O` [glycine]?
A: reduction in glycine potency (GluN1 S688A mutation): four-fold; decrease in glycine potency compared to wild-type receptors (hGluN1-4a-S688Y/hGluN3A): ~ twofold; EC50 [3]: 0.2 µM; Hill coefficient (h) [3]: 1.15 ± 0.05; EC50 ([3]; listed as Glycine): 0.17 ± 0.02 µM; EC50 [4]: 220 µM; Hill coefficient (h) [4]: 0.82 ± 0.06; EC50 ([4]; listed as Glycine): 219 ± 6.11 µM; intracellular Ca2+ (Fura-2 F340/F380) ([5]; 10 µM glycine together with 100 µM NMDA): robust increase; intracellular Ca2+ (Fura-2 F340/F380) ([5]; 1000 µM glycine together with 100 µM NMDA): robust increase; intracellular Ca2+ (Fura-2 F340/F380) [6]: no measurable effect
